Laboratory results taken from US20060286182A1, “Synergistic cinnamon combinations and methods for enhancing insulin activity” (Abeille Pharmaceuticals, Inc., priority 2005, published 2006).

System: 3T3-L1 adipocytes
Test: Oil Red O staining of triglyceride content (lipogenesis) in differentiating 3T3-L1 adipocytes
Type: cell-based, murine
Conditions: for increase in triglyceride content (lipogenic/adipogenic increase) relative to the solvent control: 50 μg test material/mL, Day 0 to Day 7 of differentiation
Text: The Model—The 3T3-L1 murine fibroblast model is used to study the potential effects of compounds on adipocyte differentiation and adipogenesis.
As preadipocytes, 3T3-L1 cells have a fibroblastic appearance. They replicate in culture until they form a confluent monolayer, after which cell-cell contact triggers Go/G1 growth arrest. Terminal differentiation of 3T3-L1 cells to adipocytes depends on proliferation of both pre- and postconfluent preadipocytes. Subsequent stimulation with 3-isobutyl-1-methylxanthane, dexamethasone, and high dose of insulin (MDI) for two days prompts these cells to undergo postconfluent mitotic clonal expansion, exit the cell cycle, and begin to express adipocyte-specific genes. Approximately five days after induction of differentiation, more than 90% of the cells display the characteristic lipid-filled adipocyte phenotype.
Cell culture and Treatment—The murine fibroblast cell line 3T3-L1 was obtained from the American Type Culture Collection (Manasus, Va.) and sub-cultured according to instructions from the supplier. For experiments, cells were cultured in DMEM containing 10% FBS-HI, with added 50 units penicillin/mL and 50 μg streptomycin/mL, and maintained in log phase prior to experimental setup. Cells were grown in a 5% CO2 humidified incubator at 37° C. Components of the pre-confluent medium included (1) 10% FBS/DMEM containing 4.5 g glucose/L; (2) 50 U/mL penicillin; and (3) 50 μg/mL streptomycin. Growth medium was made by adding 50 mL of heat inactivated FBS and 5 mL of penicillin/streptomycin to 500 mL DMEM. This medium was stored at 4° C. Before use, the medium was warmed to 37° C. in a water bath.
3T3-T1 cells were seeded at an initial density of about 4×10^4 cells/cm^2 in 24-well plates. For two days, the cells were allowed to grow to reach confluence. Following confluence, the cells were forced to differentiate into adipocytes by the addition of differentiation medium; this medium consisted of (1) 10% FBS/DMEM (high glucose); (2) 0.5 mM methylisobutylxanthine; (3) 0.5 μM dexamethasone and (4) 10 Hg/mL insulin. After three days, the medium was changed to post-differentiation medium consisting of 10 μg/mL insulin in 10% FBS/DMEM.
Test material was added in dimethyl sulfoxide at Day 0 of differentiation and every two days throughout the maturation phase (Day 7). Whenever fresh media was added, fresh test material was also added. As a positive control, troglitazone was added to achieve a final concentration of 4.4 μg/mL (10 μM). Metformin, Sample A and the metformin/Sample A combinations of 1:10, 1:5 and 1:2.5 were all tested at 50 μg test material/mL. Metformin, Sample B and the metformin/Sample B combination of 1:10 were all tested at 50 μg test material/mL.

Row | SMILES | increase in triglyceride content (lipogenic/adipogenic increase) relative to the solvent control | increase in triglyceride content (lipogenic/adipogenic increase) relative to the solvent control (listed as glipizide) | increase in triglyceride content of the 3T3-L1 cells (positive control, 4.4 μg/mL (10 μM), Day 0 to Day 7, relative to solvent control) [%]
1 | Cc1cnc(C(=O)NCCc2ccc(S(=O)(=O)NC(=O)NC3CCCCC3)cc2)cn1 [Glipizide] | 40% | increased triglyceride biosynthesis | –
2 | Cc1c(C)c2c(c(C)c1O)CCC(C)(COc1ccc(CC3SC(=O)NC3=O)cc1)O2 (stereo not shown) [Troglitazone, troglitazone] | – | – | 54
3 | CN(C)C(=N)N=C(N)N [metformin] | four | – | –
